Test results taken from patent publication US20200347043A1, “MODULATORS OF THE INTEGRATED STRESS PATHWAY” (Calico Life Sciences LLC, priority 2019, published 2020).

Tested on: HEK293T cells carrying the ATF4 luciferase reporter
Experiment: ATF4-Luc assay (in vitro model of VWMD)
Format: cell-based, human
Conditions: Homo sapiens, HEK-293T, 1 μg/mL tunicamycin, 7 hours, One Glo luminescence
Protocol: In order to test exemplary compounds of the invention in a cellular context, a stable VWMD cell line was first constructed. The ATF4 reporter was prepared by fusing the human full-length ATF4 5′-UTR (NCBI Accession No. BC022088.2) in front of the firefly luciferase (FLuc) coding sequence lacking the initiator methionine as described in Sidrauski et al (eLife 2013). The construct was used to produce recombinant retroviruses using standard methods and the resulting viral supernatant was used to transduce HEK293T cells, which were then subsequently selected with puromycin to generate a stable cell line.
HEK293T cells carrying the ATF4 luciferase reporter were plated on polylysine coated 384-well plates (Greiner Bio-one) at 30,000 cells per well. Cells were treated the next day with 1 μg/mL tunicamycin and 200 nM of a compound of Formula (I) for 7 hours. Luminescence was measured using One Glo (Promega) as specified by the manufacturer. Cells were maintained in DMEM with L-glutamine supplemented with 10% heat-inactivated FBS (Gibco) and Antibiotic-Antimycotic solution (Gibco).
Table 4 below summarizes the EC50 data obtained using the ATF4-Luc assay for exemplary compounds of the invention.

Row | Structure (SMILES) | EC50
1 | O=C(NC12CCC(C(=O)N[C@H]3C[C@@H](OC(F)(F)F)C3)(CC1)OC2)[C@@H]1C[C@H](O)c2cc(Cl)ccc2O1 [Compound 206, (2S,4S)-6-chloro-4-hydroxy-N-(1-{[cis-3-(trifluoromethoxy)cyclobutyl]carbamoyl}-2-oxabicyclo[2.2.2]octan-4-yl)-3,4-dihydro-2H-1-benzopyran-2-carboxamide] | 0.5 to 2 µM
2 | O=C1C[C@H](C(=O)NC23CC(C(=O)NCc4nc5cc(F)c(F)cc5[nH]4)(C2)C3)Oc2ccc(Cl)cc21 [Compound 135, (2R)-6-chloro-N-(3-{[(5,6-difluoro-1H-benzimidazol-2-yl)methyl]carbamoyl}bicyclo[1.1.1]pentan-1-yl)-4-oxo-3,4-dihydro-2H-1-benzopyran-2-carboxamide] | 0.05 to 0.25 µM
3 | O=C(N[C@H]1CC[C@H](C(=O)NCc2nc3ccc(Cl)cc3[nH]2)CC1)[C@H]1C[C@@H](O)c2cc(Cl)ccc2O1 (racemic) [Compound 126, rac-(2R,4R)-6-chloro-N-[(1r,4R)-4-{[(6-chloro-1H-benzimidazol-2-yl)methyl]carbamoyl}cyclohexyl]-4-hydroxy-3,4-dihydro-2H-1-benzopyran-2-carboxamide] | 0.01 to 0.05 µM
4 | O=C(NC12CC(c3cnn(-c4ccc(C(F)(F)F)nc4)c3)(C1)C2)[C@H]1C[C@@H](O)c2cc(Cl)ccc2O1 [Compound 262, (2R,4R)-6-chloro-4-hydroxy-N-(3-{1-[6-(trifluoromethyl)pyridin-3-yl]-1H-pyrazol-4-yl}bicyclo[1.1.1]pentan-1-yl)-3,4-dihydro-2H-1-benzopyran-2-carboxamide] | < 0.01 µM
5 | O=C(CO[C@H]1C[C@@H](OC(F)(F)F)C1)N[C@H]1CC[C@H](NC(=O)[C@H]2CC(=O)c3cc(Cl)ccc3O2)CC1 [Compound 213, (2R)-6-chloro-4-oxo-N-[trans-4-(2-{[cis-3-(trifluoromethoxy)cyclobutyl]oxy}acetamido)cyclohexyl]-3,4-dihydro-2H-1-benzopyran-2-carboxamide] | 0.05 to 0.25 µM
6 | O=C(NC12CCC(c3nnc([C@H]4C[C@@H](OC(F)(F)F)C4)o3)(CC1)CC2)[C@H]1C[C@@H](O)c2cc(Cl)ccc2O1 (racemic) [Compound 171, rac-(2R,4R)-6-chloro-4-hydroxy-N-(4-{5-[cis-3-(trifluoromethoxy)cyclobutyl]-1,3,4-oxadiazol-2-yl}bicyclo[2.2.2]octan-1-yl)-3,4-dihydro-2H-1-benzopyran-2-carboxamide] | < 0.01 µM
7 | O=C(NC12CC(n3ccc(-c4ccc(C(F)(F)F)nc4)c3)(C1)C2)[C@@H]1C[C@@H](O)c2cc(Cl)ccc2O1 [Compound 245, (2S,4R)-6-chloro-4-hydroxy-N-(3-{3-[6-(trifluoromethyl)pyridin-3-yl]-1H-pyrrol-1-yl}bicyclo[1.1.1]pentan-1-yl)-3,4-dihydro-2H-1-benzopyran-2-carboxamide] | 0.05 to 0.25 µM
8 | O=C(NC12CC(n3cc(-c4ccc(Cl)cc4)cn3)(C1)C2)[C@@H]1C[C@@H](O)c2cc(Cl)ccc2O1 [Compound 236, (2S,4R)-6-chloro-N-{3-[4-(4-chlorophenyl)-1H-pyrazol-1-yl]bicyclo[1.1.1]pentan-1-yl}-4-hydroxy-3,4-dihydro-2H-1-benzopyran-2-carboxamide] | < 0.01 µM
9 | O=C(N[C@H]1CC[C@H](C(=O)N2CC(c3ccccc3)C2)CC1)[C@H]1C[C@@H](O)c2cc(Cl)ccc2O1 [Compound 182, (2R,4R)-6-chloro-4-hydroxy-N-[trans-4-(3-phenylazetidine-1-carbonyl)cyclohexyl]-3,4-dihydro-2H-1-benzopyran-2-carboxamide] | > 2 µM
10 | O=C(NC12CC(C3=NOC([C@H]4C[C@@H](O)C4)C3)(C1)C2)[C@H]1C[C@@H](O)c2cc(Cl)ccc2O1 (stereo partly drawn) [Compound 227, (2R,4R)-6-chloro-4-hydroxy-N-(3-{5-[cis-3-hydroxycyclobutyl]-4,5-dihydro-1,2-oxazol-3-yl}bicyclo[1.1.1]pentan-1-yl)-3,4-dihydro-2H-1-benzopyran-2-carboxamide] | > 2 µM
11 | O=C(NC12CC(N3CC(c4ccc(Cl)cc4)OC3=O)(C1)C2)[C@H]1C[C@@H](O)c2cc(Cl)ccc2O1 (stereo partly drawn) [Compound 277, (2R,4R)-6-chloro-N-{3-[5-(4-chlorophenyl)-2-oxo-1,3-oxazolidin-3-yl]bicyclo[1.1.1]pentan-1-yl}-4-hydroxy-3,4-dihydro-2H-1-benzopyran-2-carboxamide] | 0.05 to 0.25 µM
12 | O=C(NC12CCC(c3nnc([C@H]4C[C@@H](OC(F)(F)F)C4)o3)(C1)C2)[C@H]1C[C@@H](O)c2cc(Cl)ccc2O1 (racemic) [Compound 160, rac-(2R,4R)-6-chloro-4-hydroxy-N-(4-{5-[(1s,3S)-3-(trifluoromethoxy)cyclobutyl]-1,3,4-oxadiazol-2-yl}bicyclo[2.1.1]hexan-1-yl)-3,4-dihydro-2H-1-benzopyran-2-carboxamide] | 0.05 to 0.25 µM
13 | O=C(NC12CC(c3nc(-c4ccc(Cl)c(F)c4)no3)(C1)C2)[C@@H]1C[C@H](O)c2cc(Cl)ccc2O1 (single isomer, unassigned) [Compound 199] | 0.05 to 0.25 µM
14 | O=C(N[C@@H]1CC[C@@H](c2nnc([C@H]3C[C@@H](OC(F)(F)F)C3)o2)OC1)[C@@H]1C[C@H](O)c2cc(Cl)ccc2O1 (relative stereo) [Compound 170, (2S,4S)-6-chloro-4-hydroxy-N-[(3R,6S)-6-{5-[cis-3-(trifluoromethoxy)cyclobutyl]-1,3,4-oxadiazol-2-yl}oxan-3-yl]-3,4-dihydro-2H-1-benzopyran-2-carboxamide] | 0.25 to 0.5 µM
15 | O=C(NC12CC(c3nnc([C@H]4C[C@@H](OC(F)(F)F)C4)o3)(C1)C2)[C@H]1C[C@@H](O)c2cc(Cl)ccc2O1 (racemic) [Compound 159, rac-(2R,4R)-6-chloro-4-hydroxy-N-(3-{5-[(1s,3S)-3-(trifluoromethoxy)cyclobutyl]-1,3,4-oxadiazol-2-yl}bicyclo[1.1.1]pentan-1-yl)-3,4-dihydro-2H-1-benzopyran-2-carboxamide] | 0.01 to 0.05 µM
16 | O=C(COc1ccc(Cl)c(F)c1)NC12CC(C(=O)NCC3CCc4cc(Cl)ccc4O3)(C1)C2 (stereo not drawn) [Compound 129, N-[(6-chloro-3,4-dihydro-2H-1-benzopyran-2-yl)methyl]-3-[2-(4-chloro-3-fluorophenoxy)acetamido]bicyclo[1.1.1]pentane-1-carboxamide] | 0.01 to 0.05 µM
17 | O=C(NC12CC(N3CCC(c4ccc(Cl)cc4)C3=O)(C1)C2)[C@H]1C[C@@H](O)c2cc(Cl)ccc2O1 (single isomer, unassigned) [Compound 225, (2R,4R)-6-chloro-N-{3-[(3R*)-3-(4-chlorophenyl)-2-oxopyrrolidin-1-yl]bicyclo[1.1.1]pentan-1-yl}-4-hydroxy-3,4-dihydro-2H-1-benzopyran-2-carboxamide] | 0.5 to 2 µM
18 | O=C(NC12CC(c3cnn(-c4ccc(Cl)cc4)c3)(C1)C2)[C@H]1C[C@@H](O)c2cc(Cl)ccc2O1 [Compound 264, (2R,4R)-6-chloro-N-{3-[1-(4-chlorophenyl)-1H-pyrazol-4-yl]bicyclo[1.1.1]pentan-1-yl}-4-hydroxy-3,4-dihydro-2H-1-benzopyran-2-carboxamide] | < 0.01 µM
19 | O=C(N[C@H]1CC[C@H](C(=O)N[C@H]2C[C@@H](OC(F)(F)F)C2)CC1)[C@H]1C[C@@H](O)c2cc(Cl)ccc2O1 [Compound 215, (2R,4R)-6-chloro-4-hydroxy-N-[trans-4-{[cis-3-(trifluoromethoxy)cyclobutyl]carbamoyl}cyclohexyl]-3,4-dihydro-2H-1-benzopyran-2-carboxamide] | < 0.01 µM
20 | O=C(NC12CCC(c3nnc([C@H]4C[C@@H](OC(F)(F)F)C4)o3)(CC1)CC2)[C@H]1C[C@@H](O)c2cc(Cl)ccc2O1 [Compound 203, (2R,4R)-6-chloro-4-hydroxy-N-(4-{5-[cis-3-(trifluoromethoxy)cyclobutyl]-1,3,4-oxadiazol-2-yl}bicyclo[2.2.2]octan-1-yl)-3,4-dihydro-2H-1-benzopyran-2-carboxamide] | < 0.01 µM
21 | O=C(NC12CC(n3ccc(-c4ccc(C(F)(F)F)nc4)c3)(C1)C2)[C@H]1C[C@@H](O)c2cc(Cl)ccc2O1 [Compound 244, (2R,4R)-6-chloro-4-hydroxy-N-(3-{3-[6-(trifluoromethyl)pyridin-3-yl]-1H-pyrrol-1-yl}bicyclo[1.1.1]pentan-1-yl)-3,4-dihydro-2H-1-benzopyran-2-carboxamide] | < 0.01 µM
22 | O=C(NC12CC(n3ccc(-c4ccc(Cl)cc4)c3)(C1)C2)[C@@H]1C[C@@H](O)c2cc(Cl)ccc2O1 [Compound 241, (2S,4R)-6-chloro-N-{3-[3-(4-chlorophenyl)-1H-pyrrol-1-yl]bicyclo[1.1.1]pentan-1-yl}-4-hydroxy-3,4-dihydro-2H-1-benzopyran-2-carboxamide] | 0.05 to 0.25 µM
23 | O=C(COc1ccc(Cl)c(F)c1)N[C@@H]1CC[C@@H](c2nnc([C@H]3C[C@@H](OC(F)(F)F)C3)o2)OC1 [Compound 153, 2-(4-chloro-3-fluorophenoxy)-N-[(3R,6S)-6-{5-[(1s,3R)-3-(trifluoromethoxy)cyclobutyl]-1,3,4-oxadiazol-2-yl}oxan-3-yl]acetamide] | < 0.01 µM
24 | O=C(NC12CC(N3CCN(c4ccc(Cl)cc4)C3=O)(C1)C2)[C@H]1C[C@@H](O)c2cc(Cl)ccc2O1 [Compound 183, (2R,4R)-6-chloro-N-{3-[3-(4-chlorophenyl)-2-oxoimidazolidin-1-yl]bicyclo[1.1.1]pentan-1-yl}-4-hydroxy-3,4-dihydro-2H-1-benzopyran-2-carboxamide] | 0.01 to 0.05 µM
